Measurements reported in patent US12377079B2, “Antibacterial compounds and uses thereof” (The Children's Medical Center Corporation, priority 2018, dated 2025).
“Also recorded” adds a separate entry of the source.

Key:
Group A streptococcus = experiment: Minimum inhibitory concentration (MIC); settings: read-out: Minimum inhibitory concentration (MIC)
Kp233/pJBA110 = experiment: GFP fluorescence assay (protein synthesis); settings: low concentrations, 15 hr
K. pneumoniae Kp233 = experiment: Minimum inhibitory concentration (MIC); settings: Klebsiella pneumoniae, KP233, read-out: Minimum inhibitory concentration (MIC)
Lassa virus entry = settings: PubChem BioAssay; cited from earlier work
MRSA = experiment: Minimum inhibitory concentration (MIC); settings: Staphylococcus aureus, read-out: Minimum inhibitory concentration (MIC)
[1] = Particulate matter in aqueous media (micrographs); type: physicochemical; settings: 100 μg/mL in culture medium
Method: (§1) Morphometric analysis. Carbapenem-susceptible Kp233 were treated as described for stationary phase viability assays, with the exception that negative control wells contained no DMSO and no antimicrobials. Ampicillin (150 μg/mL) was used as a positive control. Cells were incubated statically at 37° C. for 4 hr. Thirty μL from each well was transferred into a 24-well plate filled with 300 μL of LB broth. Images were captured with a 40× magnification lens using a Nikon Eclipse TE2000-E microscope. Morphometric analysis was carried out using IPLab 4.0 software.

A. baumanii = experiment: Minimum inhibitory concentration (MIC)
[2] = tested on: E. coli urine isolate EC235; experiment: Minimum inhibitory concentration (MIC); settings: Escherichia coli, read-out: Minimum inhibitory concentration (MIC)
[3] = tested on: E. coli urine isolate EC236; experiment: Minimum inhibitory concentration (MIC); settings: Escherichia coli, read-out: Minimum inhibitory concentration (MIC)
[4] = tested on: S. aureus teichoic acid biosynthesis; settings: secondary screens, after a hit in the primary screen; cited from earlier work
HeLa S3 cells = experiment: Alamar Blue assay for cytotoxicity; type: cell-based, human; settings: 20 hours
Method: Alamar Blue assay for cytotoxicity. HeLa S3 cells were cultured in Dulbecco's modified Eagle medium supplemented with 10% fetal bovine serum, 100 U/mL penicillin, and 100 μg/mL streptomycin. Each well of a 96-well microtiter plate (Nunclon Delta Surface, Thermo Scientific) was seeded with 10,000 cells in 100 μL of culture medium. Cells were incubated for 18 hr in a humidified incubator at 37° C. with 5% CO2 to allow attachment. Compounds were added to the adherent cells to yield a final concentration of 13 and 107 μg/mL. Positive control wells contained 0.1% Triton X-100, carrier control wells contained DMSO, and negative control wells contained medium and cells without DMSO. After addition of compounds, 0.1% Triton, or DMSO, plates were returned to the incubator. Cell viability was measured by resazurin reduction. Alamar Blue reagent (Invitrogen) was added to the cells after a 1.5 hr incubation with the test compounds. Cells were incubated for 20 hr, and then fluorescence was measured using the Infinite 200 (Tecan) with excitation and emission wavelengths of 550 nm and 590 nm, respectively. To calculate viability, the average fluorescence value of Triton-treated positive control wells was subtracted from that of untreated wells or wells containing test compounds. These values were then divided by the average fluorescence of untreated wells to give cell viability as a percentage of the negative control.

K. pneumoniae (Kp233) [5] = experiment: Compound impact on bacterial viability (exponential and stationary phase); type: cell-based, Klebsiella pneumoniae; settings: 100 μg/mL compound + PAβN 40 μg/ml, 4 hr, exponential and stationary phase
Method: Compound impact on bacterial viability. […] One hundred μL of each compound preparation was dispensed into the wells of a microtiter plate. Negative (untreated) wells contained LB with or without PAβN only. Stationary phase cell viability. A glycerol stock of the carbapenem-susceptible clinical strain of K. pneumoniae (Kp233) was inoculated into 1.5 mL of LB and incubated overnight (approximately 18 hr) at 37° C. with shaking. […] Cells were incubated statically at 37° C. for 4 hr, and viable counts were determined by plating. Exponential phase cell viability. Overnight cultures of Kp233 were diluted 1:5,000 into 50 mL of LB broth and incubated at 37° C. with shaking at 200 rpm. […] These cells were also washed twice with NS and inoculated into the wells of a microtiter plate prepared as described above. Cells were incubated statically at 37° C. for 4 hr, and viable counts were determined by plating.

[6] = molecular target: Human tyrosyl-DNA phosphodiesterase 1 (TDP1) (Homo sapiens, UniProt Q9NUW8); settings: PubChem BioAssay; cited from earlier work
Sequence of Human tyrosyl-DNA phosphodiesterase 1 (TDP1) (Q9NUW8 whole entry): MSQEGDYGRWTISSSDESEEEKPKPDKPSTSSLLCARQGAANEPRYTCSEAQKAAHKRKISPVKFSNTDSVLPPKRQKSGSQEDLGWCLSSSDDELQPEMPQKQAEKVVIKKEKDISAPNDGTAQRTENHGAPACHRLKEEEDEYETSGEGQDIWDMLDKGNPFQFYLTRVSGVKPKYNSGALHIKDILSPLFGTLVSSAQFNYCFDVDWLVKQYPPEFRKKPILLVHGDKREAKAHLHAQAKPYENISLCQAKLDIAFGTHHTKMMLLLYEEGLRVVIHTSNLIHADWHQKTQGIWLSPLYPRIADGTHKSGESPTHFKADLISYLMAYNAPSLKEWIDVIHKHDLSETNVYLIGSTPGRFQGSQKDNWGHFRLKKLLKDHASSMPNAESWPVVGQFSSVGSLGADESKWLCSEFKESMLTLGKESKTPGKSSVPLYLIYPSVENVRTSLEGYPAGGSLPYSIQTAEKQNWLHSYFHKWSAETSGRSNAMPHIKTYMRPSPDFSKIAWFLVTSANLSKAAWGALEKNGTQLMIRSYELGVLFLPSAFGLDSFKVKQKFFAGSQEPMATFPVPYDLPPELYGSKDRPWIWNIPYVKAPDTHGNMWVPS

resistant GNR = experiment: MIC with and without efflux pump inhibitor PAβN, resistant GNR as a group
[7] = tested on: CR-K. pneumoniae (ATCC BAA-1705); experiment: Minimum inhibitory concentration (MIC)
P. aeruginosa PA01 = experiment: Minimum inhibitory concentration (MIC)
K. pneumoniae (Kp233) [8] = experiment: Morphometric analysis by phase contrast microscopy; type: cell-based, Klebsiella pneumoniae; settings: stationary phase cells, 4 hr; compounds 100 μl/mI alone or with PAβN, ampicillin 150 μg/mL
Method: as §1

Cc1nn2c(=O)cc(-c3ccc(Cl)cc3)[nH]c2c1-c1ccccc1 [Compound N08]
MIC (Group A streptococcus): > 96 µg/mL
Bacterial growth (OD) and GFP fluorescence (Kp233/pJBA110): interfered with GFP fluorescence but not growth
MIC (K. pneumoniae Kp233): > 96 µg/mL
Inhibition of Lassa virus entry (screen) (Lassa virus entry): flagged
MIC (MRSA): < 0.75 µg/mL
Particulate matter in micrographs (insolubility in aqueous media) [1]: particulate matter was observed
Minimum inhibitory concentration (MIC) (A. baumanii; A. baumanii, PAβN + (40 μg/mL)): 1.5 µg/mL
MIC (A. baumanii; Acinetobacter baumannii, read-out: Minimum inhibitory concentration (MIC)): > 96 µg/mL
MIC [2]: > 96 µg/mL
MIC [3]: > 96 µg/mL
Inhibition of teichoic acid biosynthesis [4]: not found to have this activity
Toxicity to HeLa S3 cells (viability by resazurin reduction) (HeLa S3 cells; 13 and 107 μg/mL): minimal toxicity
Toxicity to HeLa S3 cells (viability by resazurin reduction) (HeLa S3 cells; higher concentration (107 μg/mL)): moderately toxic
Bacterial viability (CFU) with efflux pump inhibition (K. pneumoniae (Kp233) [5]): significantly potentiated the killing activity; also recorded: significantly decrease the viability
Inhibition of TDP1 (screen) [6]: flagged
Reduction of MIC by addition of PAβN (resistant GNR): 1-2 logs
Minimum inhibitory concentration (MIC) ([7]; CR-K. pneumoniae ATCC BAA-1705, PAβN + (40 μg/mL)): 6 µg/mL
MIC ([7]; Klebsiella pneumoniae, ATCCBAA1705, read-out: Minimum inhibitory concentration (MIC)): > 96 µg/mL
Minimum inhibitory concentration (MIC) (P. aeruginosa PA01; P. aeruginosa PA01, PAβN + (40 μg/mL)): 12 µg/mL
MIC (P. aeruginosa PA01; Pseudomonas aeruginosa, PA01, read-out: Minimum inhibitory concentration (MIC)): > 96 µg/mL
Cell shape / average particle size (K. pneumoniae (Kp233) [8]): do not significantly alter cell shape
